Assay results: US20170042870A1, “TARGETED NANOPARTICLE COMPOSITIONS AND METHODS OF THEIR USE TO TREAT OBESITY” (priority 2014, published 2017)

What was measured:
[1] = tested on: stromal vascular fragments (SVF) from WAT; assay: qRT-PCR of integrin expression in SVF treated in vitro; format: cell-based, mice; conditions: Rosi 1 μM
Method: (§1) WAT was dissected and extensively washed with Hank's Balanced Salt Solution (HBSS, Invitrogen). Tissues were cut into small pieces using a surgical scissor, and digested with 0.1% collagenase A in HBSS and 1% bovine serum albumin (SigmaAldrich) for 30 minutes at 37 C with gentle shaking. The digested tissues were suspended in Dulbecco's modified Eagle's medium containing 10% fetal bovine serum, and then passed through a 100 μm cell strainer (BD Falcon) to remove debris. Subsequently, cell suspension was centrifuged for 10 minutes at 300×g. 3. After removal of the floating cell layer and supernatant, the cell pellet was resuspended in 10 ml of HBSS, and then filtered through a 40 μm cell strainer (BD Falcon). The filtered cell suspension was layered on top of a Histopaque-1077 solution (10 ml) in a 50 ml tube, and then centrifuged at 400 g for 30 min at room temperature. The SVF cell layer at the gradient interface was collected and washed with HBSS. Cell counts and viability assessment were performed. Primary SVF or sorted cells were maintained in DMEM plus 10% FCS, 1% penicillin/streptomycin, and 10 ng/ml murine bFGF (R&D Systems).
(§2) Angiogenic vessels usually express high levels of integrins, particularly αv and β3 subunits. […]

[2] = tested on: stromal vascular fragments (SVF) from WAT; assay: Proliferation and cellular toxicity of SVF; format: cell-based, mice; conditions: in vitro
Method: as §1, §2

[3] = Serological parameters in fasted DIO mice; format: in vivo, C57Bl/6 mice; conditions: 25 days
Method: Serum levels of free fatty acid, glucose, triglycerides and cholesterol contents from fasted obese mice were determined by standard kits from Cayman Chemical Co. (Ann Arbor, Mich.). Serum insulin from fasted obese mice was determined by ELISA method according to manufacturer's protocol (Millipore, Billerica, Mass.).
Serum was collected from DIO mice that were fasted for five hours following 25 days of treatments, and analyzed for levels of serological parameters.

[4] = Body weight gain and food intake in DIO mice; format: in vivo, C57Bl/6 mice; conditions: 25 days post treatment, vs non-treated obese mice
Text: All animal studies were approved by the Committee on Animal Care, Massachusetts Institute of Technology. 6-week-old male wild-type mice and 10-week-old male diet-induced obese mice, of the C57Bl/6 strain, were used in current studies. High-fat-diet (TD-06414, 60/Fat) was purchased from Harlan Laboratories, and was used to induce and maintain obesity in C57Bl/6 mice.
Standard diet fed or high-fat-diet fed C57Bl/6 mice were intravenous injected with either NP constructs or free drug (rosiglitazone or 16,16-dimethyl-PGE2) at the drug dose of 80 mg/kg, every second day. Free Rosi was dissolved in DMSO followed by dilution in saline.
The high-fat-diet induced obese model was used to assess the possible impact of the two peptide-NP-Rosi on body weight, tissue histology, and molecular expression profiles. There was no difference in body weight gain between the mice treated with Rosi (in solution and non-targeted NP forms) and non-treated obese mice (FIGS. 5A and B).

CD31+ SVF = assay: Integrinαv antibody staining of CD31-sorted SVF; format: cell-based, mice; conditions: in vitro
Method: Angiogenic vessels usually express high levels of integrins, particularly αv and β3 subunits. To evaluate whether Rosi-loaded NPs can effectively induce expression of integrins on vascular cells, the stromal vascular fragments (SVF) were isolated from WAT, followed by treatment with Rosi (1 μM) in either solution or non-targeted NP form. CD31+ SVF was sorted and stained with Integrinαv antibody, Isolectin B4 and DAPI. C57Bl/6 mice were treated with Rosi, NP-Rosi, iRGD-NP-Rosi or P3-NP-Rosi for two weeks (n=3). IngWAT, epiWAT and livers were dissected and representative samples were imaged under IVIS imaging system. Inguinal WAT and epididymal WAT were dissected and representative samples were photographed.
It should also be noted that no evidence of cellular toxicity was observed under all the conditions. SVFs were sorted with an endothelial marker CD31, and stained cells with an Integrinαv antibody.

Question: What does the source list for `CN(CCOc1ccc(CC2SC(=O)NC2=O)cc1)c1ccccn1` (racemic) [Rosi, (RS)-5-[4-(2-[methyl(pyridin-2-yl)amino]ethoxy)benzyl]thiazolidine-2,4-dione]?
Answer: expression level of Integrinαv on SVF (qRT-PCR) [1]: elevated the expression levels of Integrinαv; proliferation of SVF [2]: stimulated the proliferation of SVF; reduction of serum insulin [3]: 3 folds; body weight gain [4]: no difference; Integrinαv on CD31-sorted SVF (antibody staining) (CD31+ SVF): upregulated
